These results are taken from PubChem BioAssay (NCI).

Molecules are shown by their SMILES.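 Briefly, cells in 96-well plates were exposed to five compound concentrations for 48 h, and endpoints were estimated by linear interpolation. Here, GI50 denotes the concentration required for 50% inhibition of growth. TGI denotes the concentration required for complete inhibition of growth.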

What all share (assay): NCI-60 cell line screen, 48 h
In assay [1] the test system is HCT-116 colon.
Assay [2] concerns SW-620 colon.
For assay [3], the system named is OVCAR-3 ovarian.
The test system of assay [4] is NCI-H23 lung.
Assay [5] concerns UACC-257 melanoma.
Assay [6] concerns ACHN renal.
Assay [7] deals with NCI-H460 lung.
Assay [8] deals with SF-268 CNS.

As for `CCCCCCCCCCCCCCCC1=NC(C)(C)CN1C(C)C`, the GI50 was 1.22 µM in assay [1]; 1.52 µM in assay [2]; 0.824 µM in assay [3]; 1.49 µM in assay [4]; 1.77 µM in assay [5]; 1.52 µM in assay [6]. Also, the GI50 was 1.73 µM in assay [7] and 1.47 µM in assay [8]. Further, the TGI in assay [1] turned out to be 2.46 µM; in assay [2] it was 2.85 µM; in assay [3] it was 2.09 µM; in assay [4], 2.81 µM; in assay [5], 3.31 µM; in assay [6], 2.84 µM. Besides, the TGI in assay [7] worked out at 3.11 µM; in assay [8] it was 2.79 µM.
Take `C/C(=N\NC(=S)N(C)C)c1ccccn1`: the GI50 in assay [1] was 0.000123 µM; in assay [3], 0.000474 µM; in assay [5] it was 0.000438 µM; in assay [6], 0.00151 µM; in assay [7] it was 0.0214 µM. The TGI in assay [2] is 35.4 µM; in assay [4], 18.7 µM; in assay [6] it was 1.74 µM; in assay [7], 4.09 µM; in assay [8], 11.7 µM.
Take `O=C(CCc1ccc(O)cc1)N/N=C/c1cc(Br)ccc1O`: the GI50 in assay [1] is 4.34 µM; in assay [2], 3.83 µM; in assay [3] it was 4.03 µM; in assay [4] it was 7.42 µM; in assay [5], 2.62 µM; in assay [6], 3.33 µM. Further, the values for the GI50 in assay [7] and in assay [8] were 2.93 µM and 2.23 µM, respectively. The TGI was above 100 µM in assay [1]; above 100 µM in assay [2]; 23.6 µM in assay [3]; above 100 µM in assay [4]; 11.4 µM in assay [5]; above 100 µM in assay [6]. Besides, the figures for the TGI in assay [7] and in assay [8] were 14.2 µM and 24.4 µM, respectively.
Regarding `Nc1ncc(-c2cccc(S(N)(=O)=O)c2)c2scc(-c3ccc(F)c(Cl)c3)c12`, the GI50 in assay [1] was 4.34 µM; in assay [2], 6.21 µM; in assay [3] it was 5.42 µM; in assay [4], 7.05 µM; in assay [5], 6.46 µM; in assay [6], 6.36 µM. For the same compound, the figures for the GI50 in assay [7] and in assay [8] were 3.8 µM and 5.93 µM, respectively. Besides, the TGI is 8.29 µM in assay [1]; 14.3 µM in assay [2]; 12.5 µM in assay [3]; above 21 µM in assay [4]; 17.2 µM in assay [5]; above 25 µM in assay [6]. Further, the TGI was 8.08 µM in assay [7] and above 25 µM in assay [8].
In the case of `CC(O)c1cc(C(=O)N[C@@H](C)Cn2ccc(-c3ccc(C#N)c(Cl)c3)n2)n[nH]1` (stereo partly specified), the GI50 was 45.7 µM in assay [1]; above 100 µM in assay [2]; 47.3 µM in assay [3]; 76 µM in assay [4]; 27.5 µM in assay [5]; 82.5 µM in assay [6]. Besides, the GI50 in assay [7] and in assay [8] was above 100 µM throughout. In addition, the TGI in assay [1], in assay [2], in assay [3], in assay [4], in assay [5] and in assay [6] was above 100 µM in each case. Besides, the TGI in assay [7] and in assay [8] was above 100 µM throughout.
With `COc1cc(-c2csc(NC(=O)Nc3cc(Cl)cc(Cl)c3)n2)cc(OC)c1OC`, the GI50 was 1.6 µM in assay [1]; 1.97 µM in assay [2]; 1.8 µM in assay [3]; 1.94 µM in assay [4]; 2.98 µM in assay [5]; 1.71 µM in assay [6]. The figures for the GI50 in assay [7] and in assay [8] were 1.81 µM and 2.81 µM, respectively. The TGI in assay [1] stood at 2.97 µM; in assay [2], 4.02 µM; in assay [3] it was 3.26 µM; in assay [4] it was 4.5 µM; in assay [5], 8.81 µM; in assay [6] it was 3.15 µM. The TGI in assay [7] was 3.52 µM; in assay [8], 10.6 µM.
On to `O=C(O)Cn1cc([N+](=O)[O-])c(=O)c2ccccc21`, for which the TGI in assay [1], in assay [2], in assay [3], in assay [4], in assay [5] and in assay [6] was above 100 µM each time. For the same compound, the TGI in assay [7] and in assay [8] was above 100 µM throughout.
For `COc1cccc2c1n([O-])c1cccc(OC)c1[n+]2=O`, the GI50 in assay [1] is 3.7 µM; in assay [2], 4.91 µM; in assay [3], 17.6 µM; in assay [4] it was 4.82 µM; in assay [5], 9.69 µM; in assay [6], 4.35 µM. Further, the GI50 in assay [7] is 3.05 µM; in assay [8], 6.71 µM. The TGI was 64.3 µM in assay [1]; 21.7 µM in assay [2]; above 100 µM in assay [3]; 28 µM in assay [4]; 28.7 µM in assay [5]; above 100 µM in assay [6]. For the same compound, the TGI in assay [7] turned out to be 14.4 µM; in assay [8], 35.3 µM.
With `CC(=O)c1cc(O)c2ccccc2c1O`, the GI50 in assay [1] was 17.6 µM; in assay [2], 18.4 µM; in assay [3], 17.7 µM; in assay [4] it was 20.2 µM; in assay [5], 17.7 µM; in assay [6] it was 16.9 µM. Also, the values for the GI50 in assay [7] and in assay [8] were 27 µM and 18.8 µM, respectively. Also, the TGI was 34.5 µM in assay [1]; 49.2 µM in assay [2]; 37.5 µM in assay [3]; 53.7 µM in assay [4]; 34.1 µM in assay [5]; 32.5 µM in assay [6]. Further, the TGI in assay [7] worked out at 76.8 µM; in assay [8] it was 33.4 µM.
Turning to `CCN(Cc1c(Cl)cccc1Cl)c1ccc(CO)c(Cl)c1`, the GI50 in assay [1] was below 0.0379 µM; in assay [2], 0.549 µM; in assay [3], 0.232 µM; in assay [4] it was 10.8 µM; in assay [5], below 0.0392 µM; in assay [6] it was 14.2 µM. For the same compound, the GI50 is 0.171 µM in assay [7] and 15 µM in assay [8]. Besides, the TGI in assay [1] came out at 11.3 µM; in assay [2], 17 µM; in assay [3], 1.07 µM; in assay [4], 26.2 µM; in assay [5], 0.211 µM; in assay [6] it was 27.3 µM. In addition, the values for the TGI in assay [7] and in assay [8] were 13.9 µM and 28.8 µM, respectively.
